Test results published in patent US11731964B2, “Benzamide antibacterial agents” (Purdue Research Foundation, priority 2018, dated 2023).

Assays:
[1] = system: human colorectal (Caco-2) cells; assay: Toxicity profile, MTS viability assay; type: cell-based; settings: 24 hours, tested 2 to 256 μg/mL
Description: (§1) Compound F6 was assayed (at concentrations ranging from 2 μg/mL to 256 μg/mL) against murine macrophage (J774) and human colorectal (Caco-2) epithelial cell lines to determine the potential toxic effect to mammalian cells in vitro. Caco-2 cells were cultured in Dulbecco's Modified Eagle Medium (DMEM) supplemented with 20% fetal bovine serum (FBS), non-essential amino acids (1×), and penicillin-streptomycin at 37° C. with CO2 (5%). J774 cells were cultured in DMEM supplemented with 10% FBS. Upon reaching 85-90% confluency, cells were transferred to all wells of a 96-well tissue-culture treated plate. The cells were incubated in serum-free medium with the compounds (in triplicate) at 37° C. with CO2 (5%) for 24 hours. Cells exposed to equivalent concentrations of DMSO served as the negative control. The assay reagent MTS 3-(4,5-dimethylthiazol-2-yl)-5-(3-carboxymethoxyphenyl)-2-(4-sulfophenyl)-2H-tetrazolium) (Promega, Madison, Wis., USA) was subsequently added and the plate was incubated for four hours. Absorbance readings (at OD490) were taken using a kinetic microplate reader (Molecular Devices, Sunnyvale, Calif., USA). The quantity of viable cells after treatment with each compound was expressed as a percentage of the viability of DMSO-treated control cells (average of triplicate wells±standard deviation). The toxicity data were analyzed via a two-way ANOVA, with post hoc Sidak's multiple comparisons test (P<0.05), utilizing GraphPad Prism 6.0 (GraphPad Software, La Jolla, Calif., USA).

[2] = system: murine macrophage (J774) cells; assay: Toxicity profile, MTS viability assay; type: cell-based
Description: as §1

CC1CC(C)CN(S(=O)(=O)c2ccc(C(=O)Nc3nnc(-c4cccs4)o3)cc2)C1 (stereo not drawn) [Compound F6]
concentration up to which non-toxic [1]: up to 128 μg/mL
concentration up to which non-toxic ([2]; J774 cells, 24 hours, tested 2 to 256 μg/mL): up to 128 μg/mL
non-toxic concentration, fold higher than the MIC of F6 against MRSA ([2]; mouse and human, 24 h): 63 fold
